Source: patent publication US20070060586A1, “Nitrooxyderivatives of antihypertensive drugs” (priority 2003, published 2007)
Counter-ions that a name gives are not always drawn.

Test system: PC12 cells
Experiment: Measurements of cGMP in rat PC12 cell line (intracellular cGMP formation, enzyme immunoassay)
Format: cell-based
Conditions: for EC50: PC-12, 0.75 h
Protocol: Measurements of CGMP in Rat PC12 Cell Line.
cGMP contributes to the function and interaction of several vascular cell types and its dysfunction is involved in major cardiovascular diseases such as hypertension, diabetic complications, atherosclerosis, and tissue infarction. Therefore the extent of cGMP formation elicited by the compounds of the inventions was evaluated in the rat pheochromocytoma (PC12) cell line.
Cells were maintained at 37° C. in DMEM medium enriched with 10% horse serum and 5% foetal bovine serum under 5% CO2 atmosphere. At the time of experiments the cells were washed once with Hank's Balanced Salt Solution (HBSS) supplemented with 0.05% ascorbic acid and preincubated in the same buffer for 10 min in a floating water bath. After the preincubation step, cells were exposed for additional 45 min to either control conditions or increasing concentrations of test compounds ranging from 0.1 to 25 μM, in the presence of the phosphodiesterase inhibitor, IBMX (100 μM) and the NO-independent activator of soluble guanylyl cyclase, YC-1 (20 μM). The reaction was terminated by the removal of the incubating buffer and consecutive addition of 100 μl of absolute ethanol. The organic extracts were then evaporated to dryness and the residues dissolved in aqueous buffer for quantitative determination of intracellular cGMP levels using the cGMP enzyme immunoassay kit.
The obtained results reported in Table 1 are expressed as EC50 (μM) and efficacy Emax (% of vehicle). As shown in the table the nitroderivatives of timolol elicited consistent increase of intracellular cGMP formation in PC12 cell line.

[1] = 45 min exposure, 0.1 to 25 μM, in the presence of IBMX (100 μM) and YC-1 (20 μM)

Compound | Emax (% of vehicle), cGMP formation in PC12 cells [1] | EC50 [1] [µM] | EC50, cGMP formation in PC12 cells [1] | increase of intracellular cGMP formation in PC12 cell line (in words) (summary statement to Table 1)
CC(C)(C)NCC(COc1nsnc1N1CCOCC1)OC(=O)c1ccc(CO[N+](=O)[O-])cc1.O=C(O)/C=C\C(=O)O [Compound of example 1, 4-(Nitrooxymethyl)benzoic acid (S)-1-[(1,1-dimethylethyl)amino]-3-[[4-(4-morpholinyl)-1,2,5thiadiazol-3-yl]oxy]-2-propanoate maleate salt] | 796 % of vehicle |  |  | 
CC(C)(C)NC[C@@H](COc1nsnc1N1CCOCC1)OC(=O)c1ccc(CO[N+](=O)[O-])cc1 [Compound of example 1, 4-(Nitrooxymethyl)benzoic acid (S)-1-[(1,1-dimethylethyl)amino]-3-[[4-(4-morpholinyl)-1,2,5thiadiazol-3-yl]oxy]-2-propanoate maleate salt] |  | 12.6 |  | 
CC(C)(C)N(CC(COc1nsnc1N1CCOCC1)OC(=O)c1ccc(CO[N+](=O)[O-])cc1)C(=O)c1ccc(CO[N+](=O)[O-])cc1 [Compound of example 2, 4-(Nitrooxymethyl)benzoic acid (S)-1-[(1,1-dimethylethyl)[(4-nitrooxymethyl)benzoyl]amino]-3-[[4-(4-morpholinyl)-1,2,5-thiadiazol-3-yl]oxy]-2-propanoate] | 480 % of vehicle | 1.3 |  | 
CC(C)(C)N(C[C@H](O)COc1nsnc1N1CCOCC1)C(=O)c1ccc(CO[N+](=O)[O-])cc1 [Compound of example 3, (S)-1-[(1,1-dimethylethyl)[(4-nitrooxymethyl)benzoyl]amino]-3-[[4-(4-morpholinyl)-1,2,5-thiadiazol-3-yl]oxy]-2-propanol] | 866 % of vehicle | 18.5 |  | 
CC(C)(C)NC[C@H](O)COc1nsnc1N1CCOCC1 [Timolol, reference compound] | Not effective |  | Not effective | this effect was not shared
